Reference: patent publication US11077090B2, “Compounds and compositions and uses thereof” (Sunovion Pharmaceuticals Inc., priority 2016, dated 2021)
Where two headings read alike, the source gives them in different places.

Tested on: compound-treated mice
Experiment: Neuropharmacological assay (SmartCube): behavioral activity signature and minimal effective dose
Format: in vivo
Settings: for minimal effective dose: Mus musculus, ip; for AD: ADHD (probability of activity signature) / AG: analgesic (probability of activity signature) / AX: anxiolytic (probability of activity signature) / CE: cognitive enhancer (probability of activity signature) / DP: anti-depressant (probability of activity signature) / MS: mood stabilizer (probability of activity signature) / PS: anti-psychotic (probability of activity signature) / SD: sedative hypnotic (probability of activity signature) / UN: uncharacterized CNS activity (probability of activity signature): i.p. 15 min before test, most efficacious dose(s)
How it was run: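 Mice dosed i.p. 15 min before test, compound in N-methyl-2-pyrrolidone/PEG/propylene glycol, 3 doses; video-captured behavior matched to reference-drug signatures, giving per-class probabilities at most efficacious dose. MED from doses typically 0.3–30 mpk, defined as lowest dose with ≥50% total activity.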

[1] = MED = dose having 50% or more total activity, read-out: Potency: minimal effective dose (MED)
[2] = MED = dose having 50% or more total activity, read-out: Potency: minimal effective dose (MED), binned

SMILES	minimal effective dose [1]	AD: ADHD (probability of activity signature)	AG: analgesic (probability of activity signature)	AX: anxiolytic (probability of activity signature)	CE: cognitive enhancer (probability of activity signature)	DP: anti-depressant (probability of activity signature)	MS: mood stabilizer (probability of activity signature)	PS: anti-psychotic (probability of activity signature)	SD: sedative hypnotic (probability of activity signature)	UN: uncharacterized CNS activity (probability of activity signature)	minimal effective dose [2]	Potency: minimal effective dose (MED) (MED = dose having 50% or more total activity)
Cl.NC1COCc2cc(Cl)ccc21 (stereo not drawn) [Example 2]	10 to 30 mg/kg	+ (LOQ ≤ + <5%)	++ (5% ≤ ++ <25%)	++ (5% ≤ ++ <25%)	+ (LOQ ≤ + <5%)	+ (LOQ ≤ + <5%)	+ (LOQ ≤ + <5%)	+ (LOQ ≤ + <5%)	+ (LOQ ≤ + <5%)	+++ (25% ≤ +++ <50%)		
CC[C@H]1OCc2ccc(F)cc2[C@H]1N [Example 188]		+ (LOQ ≤ + <5%)	++ (5% ≤ ++ <25%)	++ (5% ≤ ++ <25%)	+ (LOQ ≤ + <5%)	++ (5% ≤ ++ <25%)	+ (LOQ ≤ + <5%)	++ (5% ≤ ++ <25%)	+ (LOQ ≤ + <5%)	++++ (50% ≤ ++++)	< 3 mg/kg	
CN[C@@H]1COCc2ccc(C)cc21 [Example 141]	3 to 10 mg/kg	+ (LOQ ≤ + <5%)	++ (5% ≤ ++ <25%)	+++ (25% ≤ +++ <50%)	++ (5% ≤ ++ <25%)	++ (5% ≤ ++ <25%)	++ (5% ≤ ++ <25%)	++ (5% ≤ ++ <25%)	+ (LOQ ≤ + <5%)	+++ (25% ≤ +++ <50%)		
Cl.NC1COCc2ccc(Cl)cc21 (stereo not drawn) [Example 1, 6-Chloroisochroman-4-amine hydrochloride]	10 to 30 mg/kg	+ (LOQ ≤ + <5%)	++ (5% ≤ ++ <25%)	++ (5% ≤ ++ <25%)	++ (5% ≤ ++ <25%)	+ (LOQ ≤ + <5%)	+ (LOQ ≤ + <5%)	++ (5% ≤ ++ <25%)	++ (5% ≤ ++ <25%)	++ (5% ≤ ++ <25%)		
Cc1nc2c3c(ccc2s1)COCC3N.Cl (stereo not drawn) [Example 16]	10 to 30 mg/kg	+ (LOQ ≤ + <5%)	++ (5% ≤ ++ <25%)	+++ (25% ≤ +++ <50%)	++ (5% ≤ ++ <25%)	+ (LOQ ≤ + <5%)	+ (LOQ ≤ + <5%)	++ (5% ≤ ++ <25%)	+ (LOQ ≤ + <5%)	+++ (25% ≤ +++ <50%)		
C[C@@H]1OCc2ccc(Cl)cc2[C@@H]1N.Cl [Example 194]		+ (LOQ ≤ + <5%)	++ (5% ≤ ++ <25%)	++ (5% ≤ ++ <25%)	++ (5% ≤ ++ <25%)	++ (5% ≤ ++ <25%)	+ (LOQ ≤ + <5%)	++ (5% ≤ ++ <25%)	+ (LOQ ≤ + <5%)	++++ (50% ≤ ++++)	3 to 10 mg/kg	
Cc1cccc2c1COCC2N.Cl (stereo not drawn) [Example 27]	3 to 10 mg/kg	+ (LOQ ≤ + <5%)	++ (5% ≤ ++ <25%)	++ (5% ≤ ++ <25%)	++ (5% ≤ ++ <25%)	++ (5% ≤ ++ <25%)	++ (5% ≤ ++ <25%)	++ (5% ≤ ++ <25%)	+ (LOQ ≤ + <5%)	+++ (25% ≤ +++ <50%)		
Cc1cc(Cl)c2c(c1)C(N)COC2.Cl (stereo not drawn) [Example 49, 8-Chloro-6-methylisochroman-4-amine hydrochloride]	3 to 10 mg/kg	+ (LOQ ≤ + <5%)	++ (5% ≤ ++ <25%)	++ (5% ≤ ++ <25%)	++ (5% ≤ ++ <25%)	++ (5% ≤ ++ <25%)	+ (LOQ ≤ + <5%)	++ (5% ≤ ++ <25%)	++ (5% ≤ ++ <25%)	++++ (50% ≤ ++++)		
CN[C@@H]1COCc2cccc(Cl)c21 [Example 145]		+ (LOQ ≤ + <5%)	++ (5% ≤ ++ <25%)	++ (5% ≤ ++ <25%)	++ (5% ≤ ++ <25%)	+ (LOQ ≤ + <5%)	+ (LOQ ≤ + <5%)	+ (LOQ ≤ + <5%)	+ (LOQ ≤ + <5%)	+++ (25% ≤ +++ <50%)		C (>10 to ≤30 mpk)
C[C@@H]1OCc2ccc(C(F)(F)F)cc2[C@@H]1N.Cl [Example 228]		+ (LOQ ≤ + <5%)	++ (5% ≤ ++ <25%)	++ (5% ≤ ++ <25%)	+ (LOQ ≤ + <5%)	++ (5% ≤ ++ <25%)	+ (LOQ ≤ + <5%)	++ (5% ≤ ++ <25%)	+ (LOQ ≤ + <5%)	+++ (25% ≤ +++ <50%)	10 to 30 mg/kg	
C[C@H]1OCc2ccccc2[C@H]1N (single isomer, unassigned) [Example 154]	3 to 10 mg/kg	+ (LOQ ≤ + <5%)	++ (5% ≤ ++ <25%)	++ (5% ≤ ++ <25%)	++ (5% ≤ ++ <25%)	+ (LOQ ≤ + <5%)	+ (LOQ ≤ + <5%)	++ (5% ≤ ++ <25%)	++ (5% ≤ ++ <25%)	++++ (50% ≤ ++++)		
CN[C@@H]1COCc2ccc(OC)cc21 [Example 139]	3 to 10 mg/kg	+ (LOQ ≤ + <5%)	++ (5% ≤ ++ <25%)	++ (5% ≤ ++ <25%)	++ (5% ≤ ++ <25%)	++ (5% ≤ ++ <25%)	+ (LOQ ≤ + <5%)	++ (5% ≤ ++ <25%)	+ (LOQ ≤ + <5%)	+++ (25% ≤ +++ <50%)		
